Ki, IC50 and inhibition data for two compounds are collected here from ChEMBL document CHEMBL4507299, “Data for DCP probe PF-04554878” (2021).

Some results are limits rather than exact numbers.

Test [1] deals with D(1A) dopamine receptor (Homo sapiens, UniProt P21728). The test can be described thus: GPCRScan assay: inhibition of D1. More on the design: radioligand conc. used [nm] 0.6 – 1.3, parental cells HEKT.
In test [2] the target is Tyrosine-protein kinase Lyn (Homo sapiens, UniProt P07948). The experiment in a line: Cerep profiling assay (LYN). More on the design: compound concentration 10 uM.
The target of test [3] is Tyrosine-protein kinase BTK (Homo sapiens) (UniProt Q06187). The experiment in a line: BTK Invitrogen kinase activity assay. The settings on record: Compound concentration 1.0 uM.
The target in test [4] is Calcium/calmodulin-dependent protein kinase type 1 (Homo sapiens) (UniProt Q14012). The test can be described thus: CAMK1 Invitrogen kinase activity assay. The settings on record: Compound concentration 1.0 uM.
Test [5] concerns the target T1, Serine/threonine-protein kinase Chk1 (Homo sapiens) (UniProt O14757).
T1 sequence (whole entry): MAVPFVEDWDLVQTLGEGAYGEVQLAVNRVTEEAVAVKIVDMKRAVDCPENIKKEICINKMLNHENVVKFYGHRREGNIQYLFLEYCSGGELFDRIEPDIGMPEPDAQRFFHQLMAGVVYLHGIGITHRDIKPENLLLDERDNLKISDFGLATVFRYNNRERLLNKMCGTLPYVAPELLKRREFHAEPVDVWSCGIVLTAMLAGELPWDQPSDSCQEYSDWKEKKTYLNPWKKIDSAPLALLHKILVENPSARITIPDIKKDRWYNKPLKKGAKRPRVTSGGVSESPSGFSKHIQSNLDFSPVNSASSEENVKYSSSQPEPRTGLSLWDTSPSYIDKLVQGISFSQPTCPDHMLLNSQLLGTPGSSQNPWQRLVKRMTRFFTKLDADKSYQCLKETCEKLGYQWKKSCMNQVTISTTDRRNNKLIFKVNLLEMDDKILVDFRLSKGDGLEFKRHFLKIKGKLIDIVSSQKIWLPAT
The experiment in a line: CHK1 Invitrogen kinase activity assay. To be noted: Compound concentration 1.0 uM.

The target in test [6] is Serine/threonine-protein kinase Chk2 (Homo sapiens) (UniProt O96017). The test can be described thus: CHK2 Invitrogen kinase activity assay. The settings on record: Compound concentration 1.0 uM.
The target of test [7] is Casein kinase II subunit alpha (Homo sapiens) (UniProt P68400). The experiment in a line: CK2 Invitrogen kinase activity assay. To be noted: Compound concentration 1.0 uM.
Chain of Casein kinase II subunit alpha (Homo sapiens) (P68400 whole entry, looked up, canonical isoform): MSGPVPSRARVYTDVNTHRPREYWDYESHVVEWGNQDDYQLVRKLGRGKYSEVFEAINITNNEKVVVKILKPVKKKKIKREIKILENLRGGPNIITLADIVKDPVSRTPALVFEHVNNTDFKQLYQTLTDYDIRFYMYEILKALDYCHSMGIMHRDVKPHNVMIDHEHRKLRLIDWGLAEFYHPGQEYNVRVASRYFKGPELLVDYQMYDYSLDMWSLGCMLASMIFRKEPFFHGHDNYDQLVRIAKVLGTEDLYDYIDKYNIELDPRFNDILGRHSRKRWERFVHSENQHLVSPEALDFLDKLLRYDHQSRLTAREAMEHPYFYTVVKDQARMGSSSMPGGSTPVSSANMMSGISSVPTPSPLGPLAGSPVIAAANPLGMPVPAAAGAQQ
Test [8] addresses Casein kinase I isoform delta (Homo sapiens) (UniProt P48730). The test can be described thus: CKLdelta Invitrogen kinase activity assay. The settings on record: Compound concentration 1.0 uM.
Test [9] addresses Ephrin type-A receptor 2 (Homo sapiens) (UniProt P29317). The experiment in a line: ECK Invitrogen kinase activity assay. The settings on record: Compound concentration 1.0 uM.
Test [10] addresses Fibroblast growth factor receptor 1 (Homo sapiens) (UniProt P11362). The test can be described thus: FGFR1 Invitrogen kinase activity assay. The settings on record: Compound concentration 1.0 uM.
In test [11] the target is Glycogen synthase kinase-3 beta (Homo sapiens, UniProt P49841). The experiment in a line: GSK3beta Invitrogen kinase activity assay.
The target in test [12] is Mitogen-activated protein kinase kinase kinase 9 (Homo sapiens, UniProt P80192). The experiment in a line: MAP3K9 Invitrogen kinase activity assay.
Test [13] concerns the target Serine/threonine-protein kinase MARK1 (Homo sapiens, UniProt Q9P0L2). The test can be described thus: MARK1 Invitrogen kinase activity assay.
Test [14] addresses Serine/threonine-protein kinase 26 (Homo sapiens) (UniProt Q9P289). The experiment in a line: MASK Invitrogen kinase activity assay. The settings on record: Compound concentration 1.0 uM.
For test [15], the target named is Myosin light chain kinase 2, skeletal/cardiac muscle (Homo sapiens) (UniProt Q9H1R3). The test can be described thus: MYLK2 Invitrogen kinase activity assay. The settings on record: Compound concentration 1.0 uM.
Test [16] addresses NEK kinase (Homo sapiens) (UniProt P51955+Q9HC98+Q8TDX7+Q6P3R8+Q8TD19+Q8NG66+P51956+P51957+Q96PY6+Q86SG6+Q6ZWH5). The experiment in a line: NEK Invitrogen kinase activity assay. To be noted: Compound concentration 1.0 uM. In kind it is protein assay.
The target of test [17] is cAMP-dependent protein kinase catalytic subunit alpha (Homo sapiens) (UniProt P17612). The test can be described thus: PKACa Invitrogen kinase activity assay. To be noted: Compound concentration 1.0 uM.
For test [18], the target named is Protein kinase C zeta type (Homo sapiens) (UniProt Q05513). The test can be described thus: PKCzeta Invitrogen kinase activity assay. To be noted: Compound concentration 1.0 uM.
In test [19] the target is Rho-associated protein kinase 1 (Homo sapiens) (UniProt Q13464). The test can be described thus: ROCK1 Invitrogen kinase activity assay. The settings on record: Compound concentration 1.0 uM.
Test [20] has as its target Mitogen-activated protein kinase 14 (Homo sapiens) (UniProt Q16539). The test can be described thus: SAPK2A/p38 Invitrogen kinase activity assay. The settings on record: Compound concentration 1.0 uM.
The target of test [21] is T2, Serine/threonine-protein kinase Sgk1 (Homo sapiens) (UniProt O00141).
T2 sequence (whole entry): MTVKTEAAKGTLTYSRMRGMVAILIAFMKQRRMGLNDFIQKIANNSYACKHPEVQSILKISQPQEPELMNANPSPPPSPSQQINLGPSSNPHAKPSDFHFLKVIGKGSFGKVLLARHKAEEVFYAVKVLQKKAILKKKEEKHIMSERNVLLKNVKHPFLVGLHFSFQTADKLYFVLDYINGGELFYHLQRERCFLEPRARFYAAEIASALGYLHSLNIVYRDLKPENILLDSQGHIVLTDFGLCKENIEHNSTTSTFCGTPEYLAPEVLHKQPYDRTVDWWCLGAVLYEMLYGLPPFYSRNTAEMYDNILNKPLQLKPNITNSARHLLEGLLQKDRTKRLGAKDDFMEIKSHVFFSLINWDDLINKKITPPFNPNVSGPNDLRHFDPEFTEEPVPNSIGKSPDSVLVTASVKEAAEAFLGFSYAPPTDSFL
The test can be described thus: SGK Invitrogen kinase activity assay. The settings on record: Compound concentration 1.0 uM.

Test [22] concerns the target Proto-oncogene tyrosine-protein kinase Src (Homo sapiens, UniProt P12931). The test can be described thus: SRC Invitrogen kinase activity assay.
The target in test [23] is D(3) dopamine receptor (Homo sapiens) (UniProt P35462). The settings on record: Compound concentration 10.0 uM.
Chain of D(3) dopamine receptor (Homo sapiens) (P35462 whole entry): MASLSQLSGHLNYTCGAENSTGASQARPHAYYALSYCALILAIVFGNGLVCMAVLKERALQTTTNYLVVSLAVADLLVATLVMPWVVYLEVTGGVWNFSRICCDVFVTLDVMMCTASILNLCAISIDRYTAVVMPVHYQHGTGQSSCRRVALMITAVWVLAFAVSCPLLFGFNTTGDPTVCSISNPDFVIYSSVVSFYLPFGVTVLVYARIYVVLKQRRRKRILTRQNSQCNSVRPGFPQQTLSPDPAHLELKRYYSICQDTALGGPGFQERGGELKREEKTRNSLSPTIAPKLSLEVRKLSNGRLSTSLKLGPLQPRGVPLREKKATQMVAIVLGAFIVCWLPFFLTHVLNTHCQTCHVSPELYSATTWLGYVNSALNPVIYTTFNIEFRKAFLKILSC
Test [24] has as its target Kappa-type opioid receptor (Homo sapiens) (UniProt P41145). The settings on record: Compound concentration 10.0 uM.
Test [25] deals with 3-phosphoinositide-dependent protein kinase 1 (Homo sapiens) (UniProt O15530). The test can be described thus: PDK1 Invitrogen kinase activity assay. The settings on record: Compound concentration 1.0 uM.
Test [26] deals with Sigma intracellular receptor 2 (Homo sapiens, UniProt Q5BJF2). The experiment in a line: GPCRScan assay: inhibition of Sigma 2. More on the design: radioligand conc. used [nm] 5.0, parental cells HEKT.
Chain of Sigma intracellular receptor 2 (Q5BJF2 whole entry): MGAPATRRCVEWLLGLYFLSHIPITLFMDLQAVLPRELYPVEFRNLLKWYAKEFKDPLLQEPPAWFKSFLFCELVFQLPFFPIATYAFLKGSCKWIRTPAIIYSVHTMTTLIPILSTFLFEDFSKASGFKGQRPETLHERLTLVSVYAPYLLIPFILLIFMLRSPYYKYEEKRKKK
For test [27], the target named is Focal adhesion kinase 1 (Homo sapiens, UniProt Q05397). The experiment in a line: Binding assay (PTK2).
The target in test [28] is 5-hydroxytryptamine receptor 1D (Homo sapiens) (UniProt P28221). The settings on record: Compound concentration 10.0 uM.
The target of test [29] is Mu-type opioid receptor (Homo sapiens) (UniProt P35372). To be noted: Compound concentration 10.0 uM.
Chain of Mu-type opioid receptor (Homo sapiens) (P35372 whole entry): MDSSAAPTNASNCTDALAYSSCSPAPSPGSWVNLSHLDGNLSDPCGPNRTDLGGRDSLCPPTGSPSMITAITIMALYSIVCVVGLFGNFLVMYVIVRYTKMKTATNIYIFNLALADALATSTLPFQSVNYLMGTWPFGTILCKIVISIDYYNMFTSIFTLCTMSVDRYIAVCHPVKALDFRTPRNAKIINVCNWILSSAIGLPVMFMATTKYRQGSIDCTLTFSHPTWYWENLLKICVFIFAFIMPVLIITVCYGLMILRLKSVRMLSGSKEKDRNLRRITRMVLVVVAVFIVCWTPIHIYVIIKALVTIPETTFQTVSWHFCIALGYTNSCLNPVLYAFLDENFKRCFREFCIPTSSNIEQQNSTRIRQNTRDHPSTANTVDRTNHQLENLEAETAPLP
Test [30] addresses GABA-A receptor; anion channel (Rattus norvegicus) (UniProt O09028+P15431+P18506+P18508+P19969+P20236+P23574+P23576+P28471+P28473+P30191+P62813+P63079+P63138+Q91ZM7+Q9ES14). The settings on record: Compound concentration 10.0 uM.
Test [31] addresses Muscarinic acetylcholine receptor M4 (Homo sapiens) (UniProt P08173). The settings on record: Compound concentration 10.0 uM.

Chain of Proto-oncogene tyrosine-protein kinase Src (P12931 2-536 limits assumed): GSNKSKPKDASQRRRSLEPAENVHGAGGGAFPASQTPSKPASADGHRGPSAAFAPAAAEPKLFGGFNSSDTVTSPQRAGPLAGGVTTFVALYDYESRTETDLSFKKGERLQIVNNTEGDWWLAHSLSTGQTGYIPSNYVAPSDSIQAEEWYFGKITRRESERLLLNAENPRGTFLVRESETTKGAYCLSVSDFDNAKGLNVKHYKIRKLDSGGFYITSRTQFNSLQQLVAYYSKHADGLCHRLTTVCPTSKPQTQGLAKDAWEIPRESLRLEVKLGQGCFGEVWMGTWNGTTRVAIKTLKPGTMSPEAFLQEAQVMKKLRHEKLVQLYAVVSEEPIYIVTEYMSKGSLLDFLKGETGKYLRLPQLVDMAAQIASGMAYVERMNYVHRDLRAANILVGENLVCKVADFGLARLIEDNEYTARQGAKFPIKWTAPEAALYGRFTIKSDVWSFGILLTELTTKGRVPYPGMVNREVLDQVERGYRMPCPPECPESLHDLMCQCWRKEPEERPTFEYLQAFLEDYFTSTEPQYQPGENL
Chain of Fibroblast growth factor receptor 1 (Homo sapiens) (P11362 22-822 limits assumed): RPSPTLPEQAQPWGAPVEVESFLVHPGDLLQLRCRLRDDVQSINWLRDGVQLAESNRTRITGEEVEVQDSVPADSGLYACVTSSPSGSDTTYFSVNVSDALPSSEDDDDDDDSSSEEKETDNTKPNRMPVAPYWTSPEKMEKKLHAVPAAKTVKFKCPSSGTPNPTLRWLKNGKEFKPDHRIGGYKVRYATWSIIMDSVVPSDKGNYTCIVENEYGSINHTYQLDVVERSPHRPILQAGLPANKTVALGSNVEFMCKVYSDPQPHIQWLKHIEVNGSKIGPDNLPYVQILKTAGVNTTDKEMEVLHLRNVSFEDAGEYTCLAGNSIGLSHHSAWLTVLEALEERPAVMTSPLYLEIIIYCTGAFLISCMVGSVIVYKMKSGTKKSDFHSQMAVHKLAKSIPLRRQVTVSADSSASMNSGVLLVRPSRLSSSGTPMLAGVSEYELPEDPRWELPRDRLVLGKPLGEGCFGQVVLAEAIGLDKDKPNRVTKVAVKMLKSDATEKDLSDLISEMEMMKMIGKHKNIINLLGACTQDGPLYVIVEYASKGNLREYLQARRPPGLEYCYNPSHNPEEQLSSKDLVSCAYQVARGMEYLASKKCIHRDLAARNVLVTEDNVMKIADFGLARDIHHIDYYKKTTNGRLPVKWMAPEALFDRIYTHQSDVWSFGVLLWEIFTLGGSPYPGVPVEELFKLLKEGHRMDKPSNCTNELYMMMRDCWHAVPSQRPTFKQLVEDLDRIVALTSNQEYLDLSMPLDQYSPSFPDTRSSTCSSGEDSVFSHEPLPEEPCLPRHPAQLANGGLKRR
Chain of Serine/threonine-protein kinase 26 (Homo sapiens) (Q9P289 2-416 limits assumed): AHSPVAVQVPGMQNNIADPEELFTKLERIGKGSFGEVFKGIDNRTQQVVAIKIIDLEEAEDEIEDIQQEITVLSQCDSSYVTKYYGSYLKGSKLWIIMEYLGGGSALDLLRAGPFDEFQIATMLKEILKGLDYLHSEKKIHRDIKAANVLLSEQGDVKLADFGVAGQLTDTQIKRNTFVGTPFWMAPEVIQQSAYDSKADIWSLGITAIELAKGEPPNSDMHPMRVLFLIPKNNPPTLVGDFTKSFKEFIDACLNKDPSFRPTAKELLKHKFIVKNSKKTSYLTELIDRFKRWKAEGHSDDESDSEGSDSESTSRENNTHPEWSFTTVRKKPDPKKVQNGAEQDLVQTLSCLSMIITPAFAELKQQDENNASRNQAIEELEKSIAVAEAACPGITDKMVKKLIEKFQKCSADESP
Chain of Muscarinic acetylcholine receptor M4 (Homo sapiens) (P08173 whole entry): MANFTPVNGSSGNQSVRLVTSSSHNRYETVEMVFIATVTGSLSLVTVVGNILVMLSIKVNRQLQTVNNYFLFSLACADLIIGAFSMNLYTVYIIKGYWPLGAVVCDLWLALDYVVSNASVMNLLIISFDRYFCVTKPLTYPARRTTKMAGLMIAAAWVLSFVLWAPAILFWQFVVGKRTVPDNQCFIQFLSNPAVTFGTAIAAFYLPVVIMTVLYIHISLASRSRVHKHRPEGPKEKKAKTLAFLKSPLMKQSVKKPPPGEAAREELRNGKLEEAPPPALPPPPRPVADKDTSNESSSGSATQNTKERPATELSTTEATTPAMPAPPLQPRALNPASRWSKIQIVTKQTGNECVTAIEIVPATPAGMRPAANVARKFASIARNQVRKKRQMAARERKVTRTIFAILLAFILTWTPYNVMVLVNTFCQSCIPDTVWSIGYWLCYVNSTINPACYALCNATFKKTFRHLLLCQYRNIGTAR
Chain of Mitogen-activated protein kinase 14 (Homo sapiens) (Q16539 whole entry): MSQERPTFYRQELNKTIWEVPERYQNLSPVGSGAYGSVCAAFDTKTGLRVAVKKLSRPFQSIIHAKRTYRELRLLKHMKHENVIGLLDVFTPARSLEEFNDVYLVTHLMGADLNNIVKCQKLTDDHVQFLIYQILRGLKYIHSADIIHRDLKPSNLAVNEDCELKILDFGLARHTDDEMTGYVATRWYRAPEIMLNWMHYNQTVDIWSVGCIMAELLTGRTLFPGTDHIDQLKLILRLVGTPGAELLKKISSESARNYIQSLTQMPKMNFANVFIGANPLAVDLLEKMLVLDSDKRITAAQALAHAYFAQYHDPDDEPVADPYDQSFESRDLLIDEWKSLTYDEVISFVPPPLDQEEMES
Chain of Kappa-type opioid receptor (Homo sapiens) (P41145 whole entry): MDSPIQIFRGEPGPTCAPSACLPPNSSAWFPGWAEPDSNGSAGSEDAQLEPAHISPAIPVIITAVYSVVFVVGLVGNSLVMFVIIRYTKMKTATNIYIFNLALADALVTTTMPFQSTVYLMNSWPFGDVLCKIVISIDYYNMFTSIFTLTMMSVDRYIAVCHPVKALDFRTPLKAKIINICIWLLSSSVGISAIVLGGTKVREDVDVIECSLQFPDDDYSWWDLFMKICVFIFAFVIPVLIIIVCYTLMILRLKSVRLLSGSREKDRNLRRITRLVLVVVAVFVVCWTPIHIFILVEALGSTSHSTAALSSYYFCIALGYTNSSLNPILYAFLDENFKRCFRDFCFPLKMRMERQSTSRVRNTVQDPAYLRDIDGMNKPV
Chain of D(1A) dopamine receptor (P21728 whole entry): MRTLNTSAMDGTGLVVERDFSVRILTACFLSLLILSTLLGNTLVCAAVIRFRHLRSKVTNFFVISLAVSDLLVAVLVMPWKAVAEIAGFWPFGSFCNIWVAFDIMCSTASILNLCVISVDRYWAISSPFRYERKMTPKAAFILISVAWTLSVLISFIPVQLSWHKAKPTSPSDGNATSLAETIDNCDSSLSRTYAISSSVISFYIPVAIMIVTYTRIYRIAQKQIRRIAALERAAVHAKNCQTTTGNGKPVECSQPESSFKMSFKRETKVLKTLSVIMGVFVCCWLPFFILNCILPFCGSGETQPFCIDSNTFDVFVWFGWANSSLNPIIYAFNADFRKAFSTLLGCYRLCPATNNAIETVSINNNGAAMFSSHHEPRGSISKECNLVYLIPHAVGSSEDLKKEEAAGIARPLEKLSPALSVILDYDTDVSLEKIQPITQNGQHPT

On to `CNC(=O)c1ccc(Nc2ncc(C(F)(F)F)c(NCc3nccnc3N(C)S(C)(=O)=O)n2)cc1` [DEFACTINIB], for which the Ki – broadly, a measure of affinity in units of concentration, obtained from inhibition or displacement – in test [1] was 10000 nM. Besides, the IC50 (commonly the midpoint of a concentration-inhibition curve) is 1100 nM (not active) in test [2]; 416 nM in test [11]; 75.3 nM in [12]; 448 nM in [13]; above 1000 nM in [22]. In addition, the inhibition – broadly, the relative decrease from the control value, in per cent – is 14% in test [3]; 0% in [4]; 23% in test [5]; 28% in test [6]; 43% in test [7]; 27% in [8]. For the same compound, the inhibition in test [9] is 18%; in test [10], 64%; in test [11] (Compound concentration 1.0 uM), 83%; in [12] (Compound concentration 1.0 uM), 98%; in test [13] (Compound concentration 1.0 uM) it was 81%; in test [14] it was 46%. Further, the inhibition was 8% in [15]; 12% in test [16]; 29% in [17]; 10% in test [18]; 20% in test [19]; 1% in test [20]. In addition, the inhibition was 30% in test [21]; 58% in [22] (Compound concentration 1.0 uM); 11.3% in [23]; 10.8% in test [24]; 25% in [25].
On to `CN(c1ccnc(CNc2nc(Nc3ccc4c(c3)CC(=O)N4)ncc2C(F)(F)F)n1)S(C)(=O)=O` [PF-00911705], for which the Ki in test [26] was found to be 2120 nM. Besides, the IC50 in [27] is recorded as 721 nM (not active). In addition, the inhibition in test [28] is 0.19%; in [29], 0.77%; in [30], 10.3%; in [31], 8.94%.
